≈ marks a conversion by molar mass, not a printed value. Where two headings read alike, the source gives them in different places.
What was measured:
[1] = test system: Enterobacter cloacae MA75-1; test: In vitro MIC, agar dilution, Enterobacter cloacae MA75-1; format: cell-based; conditions: read-out: Minimal Inhibitory Concentration
Procedure: (§1) The in vitro activity of representative compounds of the present invention are given in the following Table I in terms of minimal inhibitory concentration. The test used was the standard agar dilution test using a Steers multiple inocula replicator and incubating at 35° C. for 18 hours in conventional nutrient agar.

[2] = test system: Proteus rettgeri N76-1; test: In vitro MIC, agar dilution, Proteus rettgeri N76-1; format: cell-based; conditions: Providencia rettgeri, N761; Proteus rettgeri N76-1; agar dilution, 35° C., 18 hours, nutrient agar; read-out: Minimal Inhibitory Concentration
Procedure: as §1

[3] = test system: Klebsiella pneumoniae W-75-2; test: In vivo systemic lethal infection of mice, Klebsiella pneumoniae W-75-2; parameters: species or system Charles River CD-1 mice; conditions: CD-1 mice
Description: (§2) As shown in Table II these compounds show high in vivo antibacterial activity against Escherichia coli 311 and Klebsiella pneumoniae W-75-2 when administered by a single subcutaneous dose to groups of Charles River CD-1 mice, weighing about 20 g. each. The mice are infected intraperitoneally with a lethal dose of these bacteria.

[4] = test system: Klebsiella pneumoniae W75-2; test: In vitro MIC, agar dilution, Klebsiella pneumoniae W75-2; format: cell-based; conditions: W752; Klebsiella pneumoniae W75-2; agar dilution, 35° C., 18 hours, nutrient agar; read-out: Minimal Inhibitory Concentration
Procedure: as §1

[5] = test system: Klebsiella pneumoniae UR76-1; test: In vitro MIC, agar dilution, Klebsiella pneumoniae UR76-1; format: cell-based; conditions: UR761; Klebsiella pneumoniae UR76-1; agar dilution, 35° C., 18 hours, nutrient agar; read-out: Minimal Inhibitory Concentration
Procedure: as §1

[6] = test system: Staphylococcus aureus Q74-1; test: In vitro MIC, agar dilution, Staphylococcus aureus Q74-1; format: cell-based; conditions: Q741; Staphylococcus aureus Q74-1; agar dilution, 35° C., 18 hours, nutrient agar; read-out: Minimal Inhibitory Concentration
Procedure: as §1

[7] = test system: Pseudomonas aeruginosa 12-4-4; test: In vitro MIC, agar dilution, Pseudomonas aeruginosa 12-4-4; format: cell-based; conditions: 1244; Pseudomonas aeruginosa 12-4-4; agar dilution, 35° C., 18 hours, nutrient agar; read-out: Minimal Inhibitory Concentration
Procedure: as §1

[8] = test system: Proteus morganii K72; test: In vitro MIC, agar dilution, Proteus morganii K72; format: cell-based; conditions: Morganella morganii; Proteus morganii K72; agar dilution, 35° C., 18 hours, nutrient agar; read-out: Minimal Inhibitory Concentration
Procedure: as §1

[9] = test system: Enterobacter aerogenes UR76-3; test: In vitro MIC, agar dilution, Enterobacter aerogenes UR76-3; format: cell-based; conditions: Klebsiella aerogenes, UR763; Enterobacter aerogenes UR76-3; agar dilution, 35° C., 18 hours, nutrient agar; read-out: Minimal Inhibitory Concentration
Procedure: as §1

[10] = test system: Enterococcus SM77-15; test: In vitro MIC, agar dilution, Enterococcus SM77-15; format: cell-based; conditions: SM7715; Enterococcus SM77-15; agar dilution, 35° C., 18 hours, nutrient agar; read-out: Minimal Inhibitory Concentration
Procedure: as §1

[11] = test system: Klebsiella pneumoniae W75-4; test: In vitro MIC, agar dilution, Klebsiella pneumoniae W75-4; format: cell-based; conditions: W754; Klebsiella pneumoniae W75-4; agar dilution, 35° C., 18 hours, nutrient agar; read-out: Minimal Inhibitory Concentration
Procedure: as §1

[12] = test system: Proteus vulgaris N74-1; test: In vitro MIC, agar dilution, Proteus vulgaris N74-1; format: cell-based; conditions: N741, 35° C., 18 hours, nutrient agar, read-out: Minimal Inhibitory Concentration
Procedure: as §1

[13] = test system: Escherichia coli OSU75-1; test: In vitro MIC, agar dilution, Escherichia coli OSU75-1; format: cell-based; conditions: OSU751, 35° C., 18 hours, nutrient agar, read-out: Minimal Inhibitory Concentration
Procedure: as §1

[14] = test system: Serratia K101; test: In vitro MIC, agar dilution, Serratia K101; format: cell-based; conditions: Serratia K101; agar dilution, 35° C., 18 hours, nutrient agar; read-out: Minimal Inhibitory Concentration
Procedure: as §1

[15] = test system: Serratia marcens K77-1; test: In vitro MIC, agar dilution, Serratia marcens K77-1; format: cell-based; conditions: K771; Serratia marcens K77-1; agar dilution, 35° C., 18 hours, nutrient agar; read-out: Minimal Inhibitory Concentration
Procedure: as §1

[16] = test system: Klebsiella pneumoniae AD; test: In vitro MIC, agar dilution, Klebsiella pneumoniae AD; format: cell-based; conditions: Klebsiella pneumoniae AD; agar dilution, 35° C., 18 hours, nutrient agar; read-out: Minimal Inhibitory Concentration
Procedure: as §1

[17] = test system: Pseudomonas aeruginosa PD05141; test: In vitro MIC, agar dilution, Pseudomonas aeruginosa PD05141; format: cell-based; conditions: read-out: Minimal Inhibitory Concentration
Procedure: as §1

[18] = test system: Enterobacter cloacae OSU75-2; test: In vitro MIC, agar dilution, Enterobacter cloacae OSU75-2; format: cell-based; conditions: OSU752; Enterobacter cloacae OSU75-2; agar dilution, 35° C., 18 hours, nutrient agar; read-out: Minimal Inhibitory Concentration
Procedure: as §1

[19] = test system: Escherichia coli 311; test: In vitro MIC, agar dilution, Escherichia coli 311; format: cell-based; conditions: 35° C., 18 hours, nutrient agar, read-out: Minimal Inhibitory Concentration
Procedure: as §1

[20] = test system: Staphylococcus aureus Q74-6; test: In vitro MIC, agar dilution, Staphylococcus aureus Q74-6; format: cell-based; conditions: Q746; Staphylococcus aureus Q74-6; agar dilution, 35° C., 18 hours, nutrient agar; read-out: Minimal Inhibitory Concentration
Procedure: as §1

[21] = test system: Escherichia coli ESS22-31; test: In vitro MIC, agar dilution, Escherichia coli ESS22-31; format: cell-based; conditions: ESS2231; Escherichia coli ESS22-31; agar dilution, 35° C., 18 hours, nutrient agar; read-out: Minimal Inhibitory Concentration
Procedure: as §1

[22] = test system: Escherichia coli W75-1; test: In vitro MIC, agar dilution, Escherichia coli W75-1; format: cell-based; conditions: W751, 35° C., 18 hours, nutrient agar, read-out: Minimal Inhibitory Concentration
Procedure: as §1

[23] = test system: Pseudomonas aeruginosa G236; test: In vitro MIC, agar dilution, Pseudomonas aeruginosa G236; format: cell-based; conditions: Pseudomonas aeruginosa G236; agar dilution, 35° C., 18 hours, nutrient agar; read-out: Minimal Inhibitory Concentration
Procedure: as §1

[24] = test system: Serratia marcens QHC77-2; test: In vitro MIC, agar dilution, Serratia marcens QHC77-2; format: cell-based; conditions: QHC772; Serratia marcens QHC77-2; agar dilution, 35° C., 18 hours, nutrient agar; read-out: Minimal Inhibitory Concentration
Procedure: as §1

[25] = test system: Pseudomonas aeruginosa UCS 76-13; test: In vitro MIC, agar dilution, Pseudomonas aeruginosa UCS 76-13; format: cell-based; conditions: UCS7613; Pseudomonas aeruginosa UCS 76-13; agar dilution, 35° C., 18 hours, nutrient agar; read-out: Minimal Inhibitory Concentration
Procedure: as §1

[26] = test system: Klebsiella pneumoniae MA75-1; test: In vitro MIC, agar dilution, Klebsiella pneumoniae MA75-1; format: cell-based; conditions: MA751; Klebsiella pneumoniae MA75-1; agar dilution, 35° C., 18 hours, nutrient agar; read-out: Minimal Inhibitory Concentration
Procedure: as §1

[27] = test system: Escherichia coli 311; test: In vivo systemic lethal infection of mice, Escherichia coli 311; parameters: species or system Charles River CD-1 mice; conditions: CD-1 mice
Description: as §2

[28] = single subcutaneous dose 0.12 mg./kg.
[29] = single subcutaneous dose 0.25 mg./kg.
[30] = single subcutaneous dose 0.5 mg./kg.
[31] = single subcutaneous dose 1 mg./kg.
[32] = single subcutaneous dose 2 mg./kg.
[33] = single subcutaneous dose 4 mg./kg.
[34] = single subcutaneous dose 8 mg./kg.

Row | SMILES | MIC [2] [µg/mL] | Alive/Total Mice Tested, 7 Days After Infection [3, 30] | MIC [4] [µg/mL] | MIC [5] [µg/mL] | MIC [6] [µg/mL] | MIC [7] [µg/mL] | MIC [8] [µg/mL] | MIC [9] [µg/mL] | MIC [10] [µg/mL] | MIC [11] [µg/mL] | MIC [12] [µg/mL] | MIC [13] [µg/mL] | MIC [14] [µg/mL] | MIC [15] [µg/mL] | MIC [16] [µg/mL] | MIC [18] [µg/mL] | MIC [19] [µg/mL] | MIC [20] [µg/mL] | MIC [21] [µg/mL] | MIC [22] [µg/mL] | other results
1 | CO/N=C(\C(=O)NC1C(=O)N2C(C(=O)O)=C(CSc3nnc(-n4cccn4)n3N)CSC12)c1csc(N)n1 (stereo not drawn) [Compound I, 7-[2-(Syn-methoxyimino)-2-(2-aminothiazol-4-yl)acetamido]-3-[4-amino-5-(1-pyrazolyl)-1,2,4-triazol-3-ylthiomethyl]-3-cephem-4-carboxylic acid] | ≤ 0.12 | 19/20 | ≤ 0.12 | 0.5 (≈ 0.866 µM) | 2 (≈ 3.46 µM) | 64 (≈ 111 µM) | ≤ 0.12 | ≤ 0.12 | > 128 | ≤ 0.12 | ≤ 0.12 | ≤ 0.12 | 0.5 (≈ 0.866 µM) | 0.5 (≈ 0.866 µM) | ≤ 0.12 | 0.5 (≈ 0.866 µM) | ≤ 0.12 | 64 (≈ 111 µM) | ≤ 0.12 | ≤ 0.12 | MIC ([1]; MA751, Enterobacter cloacae MA75-1, agar dilution, 35° C., 18 hours, nutrient agar): 128 µg/mL (≈ 222 µM); Alive/Total Mice Tested, 7 Days After Infection ([3]; single subcutaneous dose 0.06 mg./kg.): 1/20; Alive/Total Mice Tested, 7 Days After Infection [3, 28]: 2/20; Alive/Total Mice Tested, 7 Days After Infection [3, 29]: 14/20; MIC ([17]; Pseudomonas aeruginosa, PD05141, 18 h): 128 µg/mL (≈ 222 µM); MIC [23]: 64 µg/mL (≈ 111 µM); MIC [24]: 1 µg/mL (≈ 1.73 µM); MIC [25]: 128 µg/mL (≈ 222 µM); MIC [26]: ≤ 0.12 µg/mL; Alive/Total Mice Tested, 7 Days After Infection [27, 28]: 1/20; Alive/Total Mice Tested, 7 Days After Infection [27, 29]: 6/20; Alive/Total Mice Tested, 7 Days After Infection [27, 30]: 15/20; Alive/Total Mice Tested, 7 Days After Infection [27, 31]: 19/20
2 | Cn1nnnc1SCC1=C(C(=O)O)N2C(=O)[C@@H](NC(=O)[C@H](O)c3ccccc3)[C@H]2SC1 [Cefamandol] | – | 0/20 | – | – | – | – | – | – | – | – | – | – | – | – | – | – | – | – | – | – | Alive/Total Mice Tested, 7 Days After Infection [3, 31]: 1/20; Alive/Total Mice Tested, 7 Days After Infection [3, 32]: 7/20; Alive/Total Mice Tested, 7 Days After Infection [3, 33]: 19/20; Alive/Total Mice Tested, 7 Days After Infection [3, 34]: 20/20; Alive/Total Mice Tested, 7 Days After Infection [27, 33]: 6/20; Alive/Total Mice Tested, 7 Days After Infection [27, 34]: 11/20; Alive/Total Mice Tested, 7 Days After Infection ([27]; single subcutaneous dose 16 mg./kg.): 20/20; Alive/Total Mice Tested, 7 Days After Infection ([27]; single subcutaneous dose 32 mg./kg.): 20/20
3 | CO/N=C(\C(=O)NC1C(=O)N2C(C(=O)O)=C(CSc3n[nH]c(-n4cccn4)n3)CSC12)c1csc(N)n1 (stereo not drawn) [Compound V, 7-[2-(Syn-methoxyimino)-2-(2-aminothiazol-4-yl)acetamido]-3-[5-(1-pyrazolyl)-1,2,4-triazol-3-ylthiomethyl]-3-cephem-4-carboxylic acid] | ≤ 0.12 | – | ≤ 0.12 | 0.25 (≈ 0.444 µM) | 1 (≈ 1.78 µM) | 16 (≈ 28.4 µM) | ≤ 0.12 | ≤ 0.12 | > 128 | ≤ 0.12 | 2 (≈ 3.55 µM) | ≤ 0.12 | 0.5 (≈ 0.889 µM) | 0.5 (≈ 0.889 µM) | ≤ 0.12 | 4 (≈ 7.11 µM) | ≤ 0.12 | 64 (≈ 114 µM) | ≤ 0.12 | ≤ 0.12 | MIC ([1]; Enterobacter cloacae, MA751, 18 h): > 128 µg/mL; MIC ([17]; Pseudomonas aeruginosa PD05141, agar dilution, 35° C., 18 hours, nutrient agar): 64 µg/mL (≈ 114 µM); MIC [23]: 16 µg/mL (≈ 28.4 µM); MIC [24]: 0.25 µg/mL (≈ 0.444 µM); MIC [25]: 64 µg/mL (≈ 114 µM); MIC [26]: ≤ 0.12 µg/mL; Alive/Total Mice Tested, 7 Days After Infection [27, 29]: 0/5; Alive/Total Mice Tested, 7 Days After Infection [27, 30]: 0/5; Alive/Total Mice Tested, 7 Days After Infection [27, 31]: 5/5; Alive/Total Mice Tested, 7 Days After Infection [27, 32]: 5/5; Alive/Total Mice Tested, 7 Days After Infection [27, 33]: 5/5
